Measured values from patent publication EP0019589A1, “Tripeptide derivatives and their use in a process for determining enzymes” (Pentapharm A.G., priority 1979, dated 1980).
Non-standard residues stand in square brackets, D forms with d. Residues, ends and D or L forms follow the SMILES beside them. *: point of attachment. Cha = N[C@@H](CC1CCCCC1)C(=O)O; dCha = N[C@H](CC1CCCCC1)C(=O)O; dChg = N[C@@H](C(=O)O)C1CCCCC1; dPhg = N[C@@H](C(=O)O)c1ccccc1; pNA = O=[N+]([O-])c1ccc(N*)cc1; Chg = N[C@H](C(=O)O)C1CCCCC1; dNle = CCCC[C@@H](N)C(=O)O; dNva = CCC[C@@H](N)C(=O)O

Columns and labels:
Assay type in all cases: biochemical
[1] = biological target: T1, Urinkallikrein (Homo sapiens, UniProt P06870); test: Cleavage of chromogenic substrate by urinary kallikrein in human urine; conditions: 1 ml human urine (pooled morning urine of healthy persons), per min; Substratkonzentration 2 x 10^-4 molar
T1 construct: 1 ml Urin und 1 ml TRIS-Imidazol-Puffer mit pH 7,9; from tissue; host or cells: human urine

[2] = biological target: T2, Submandibularis-Kallikrein (Homo sapiens, UniProt P06870); test: Cleavage of chromogenic substrate by submandibular (glandular) kallikrein in human sputum; conditions: 1 ml human sputum, per min; Substratkonzentration 2 x 10^-4 molar
T2 construct: Man mischt 0,5 ml Sputum mit 2 ml TRIS-Imidazol-Puffer; from tissue; host or cells: human sputum
Outline: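 Sputum mixed with TRIS-imidazole buffer (ionic strength 1.0), preincubated 5 min at 37°C and centrifuged; supernatant incubated with aqueous substrate solution (2 x 10^-3 M, stock). p-Nitroaniline release followed continuously at 405 nm for 5-10 min; activity expressed as mU per ml sputum from ΔOD/min.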

[3] = biological target: T3, Humanplasmin (Homo sapiens, UniProt P00747); test: Cleavage of chromogenic substrate by human plasmin; conditions: 1 CU-Einheit human plasmin, per min; Substratkonzentration 2 x 10^-4 molar
T3 construct: da bei der Aktivierung aus 1 Molekül Plasminogen 1 Molekül Plasmin entsteht

[4] = biological target: T4, Humanthrombin (Homo sapiens, UniProt P00734); test: Cleavage of chromogenic substrate by human NIH thrombin; conditions: 1 NIH-Einheit human thrombin, per min; Substratkonzentration 2 x 10^-4 molar
T4 construct: Humanplasmin und hu-manem NIH-Thrombin
Source text: Bei der Messung des durch die enzymatische Hydrolyse des Substrates gebildeten Spaltproduktes RrNH2 geht man von der Voraussetzung aus, dass das Spaltprodukt ein UV-Spektrum besitzt, das von demjenigen des Substrates verschieden und in Richtung höherer Wellenlängen verschoben ist. Die Absorption des Substrates bei 405 nm ist praktisch Null. p-Nitroanilin als Spaltprodukt weist ein Absorptionsmaximum bei 380 nm und einen molaren Extinktionskoeffizienten von 13'200 auf. Bei 405 nm ist der Extinktionskoeffizient nur wenig niedriger, d.h. […] Der Grad der enzymatischen Hydrolyse des Substrates, welcher der Menge des abgespaltenen p-Nitroanilins proportional ist, lässt sich durch spektrophotometrische Messung bei 405 nm bestimmen. Auch bei Anwesenheit eines Ueberschusses an Substrat wird die Messung bei 405 nm nicht gestört.
Bei den Substraten, die als chromogene Gruppe eine 2-Naphthylamino-, 4-Methoxy-2-naphthylamino-, 4-Methyl-cumaryl-(7)-amino- oder 1,3-Di(methoxycarbonyl)-phenyl-(5)-amino-Gruppe enthalten, wird die Menge des Spaltproduktes R-NH2 durch Fluoreszenzspektrophotometrie gemessen. In einem aus Enzym, Puffer und Substrat bestehenden Testsystem misst man kontinuierlich das energieärmere emittierte Licht bei 400-470 nm, nachdem man das gebildete fluoreszierende Spaltprodukt mit energiereicherem Licht erregt hat. Die pro Zeiteinheit gebildete Menge Spaltprodukt ist ein Mass für die vorhandene Enzymaktivität. 1 µMol Spaltprodukt pro Minute entspricht definitionsgemäss 1 Enzym-Einheit, bezogen auf ein gegebenes Substrat.

T2 sequence (P06870 25-262): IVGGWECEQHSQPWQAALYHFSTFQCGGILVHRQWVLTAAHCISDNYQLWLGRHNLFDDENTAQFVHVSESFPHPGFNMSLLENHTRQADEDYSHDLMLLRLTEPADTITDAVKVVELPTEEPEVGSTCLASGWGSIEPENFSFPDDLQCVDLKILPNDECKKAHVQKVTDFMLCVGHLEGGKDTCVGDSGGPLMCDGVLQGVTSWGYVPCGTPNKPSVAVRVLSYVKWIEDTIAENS
T1 sequence (P06870 25-262): as above
T3 sequence (P00747 581-810 limits assumed): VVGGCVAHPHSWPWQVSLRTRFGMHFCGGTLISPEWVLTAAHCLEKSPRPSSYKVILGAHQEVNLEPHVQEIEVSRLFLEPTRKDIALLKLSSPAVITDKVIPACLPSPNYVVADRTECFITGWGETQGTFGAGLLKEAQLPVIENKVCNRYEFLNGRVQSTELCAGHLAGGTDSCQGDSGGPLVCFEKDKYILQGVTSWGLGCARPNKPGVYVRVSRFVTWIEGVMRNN
T3 sequence (P00747 97-580 partner limits assumed): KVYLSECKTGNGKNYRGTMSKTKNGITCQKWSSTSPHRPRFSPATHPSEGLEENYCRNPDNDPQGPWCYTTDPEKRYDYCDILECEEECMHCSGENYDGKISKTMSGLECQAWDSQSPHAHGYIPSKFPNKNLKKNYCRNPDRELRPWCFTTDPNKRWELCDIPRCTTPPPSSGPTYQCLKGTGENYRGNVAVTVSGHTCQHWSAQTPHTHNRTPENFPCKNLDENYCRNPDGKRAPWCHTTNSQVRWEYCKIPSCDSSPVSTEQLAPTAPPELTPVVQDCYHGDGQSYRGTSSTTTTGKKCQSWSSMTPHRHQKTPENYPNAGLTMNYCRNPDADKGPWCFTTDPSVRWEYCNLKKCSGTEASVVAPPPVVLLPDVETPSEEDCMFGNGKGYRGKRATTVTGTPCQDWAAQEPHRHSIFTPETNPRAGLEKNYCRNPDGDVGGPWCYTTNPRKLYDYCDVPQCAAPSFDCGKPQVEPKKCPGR

In the case of `N=C(N)NCCC[C@H](NC(=O)[C@@H]1CCCN1C(=O)[C@H](N)C1CCCCC1)C(=O)Nc1ccc([N+](=O)[O-])cc1` [Beispiel 27, 2HBr.H-D-CHG-Pro-Arg-pNA] (H-[dChg]-Pro-Arg-pNA), the “Menge des durch 1 ml Humanurin pro Min. freigesetzten Spaltproduktes R-NH2 in Nanomol (Urinkallikrein)” value [1] is reported as 0,33 Nanomol, the “Menge des durch 1 ml Humansputum pro Min. freigesetzten Spaltproduktes R-NH2 in Nanomol (Submandibularis-Kallikrein)” value [2] is reported as 12,9 Nanomol and the “Menge des durch 1 CU-Einheit Humanplasmin pro Min. freigesetzten Spaltproduktes R-NH2 in Nanomol (Humanplasmin)” value [3] is reported as 511 Nanomol. For the same compound, the “Menge des durch 1 NIH-Einheit Thrombin pro Min. freigesetzten Spaltproduktes R-NH2 in Nanomol (Humanthrombin)” value [4] was 96,3 Nanomol.

In the case of `N=C(N)NCCC[C@H](NC(=O)[C@@H]1CCCCN1C(=O)[C@H](N)CC1CCC(O)CC1)C(=O)Nc1ccc([N+](=O)[O-])cc1` (stereo partly drawn) [Beispiel 28, 2HBr.H-D-CHT-Pip-Arg-pNA], the “Menge des durch 1 ml Humanurin pro Min. freigesetzten Spaltproduktes R-NH2 in Nanomol (Urinkallikrein)” value [1] is reported as 0 Nanomol, the “Menge des durch 1 ml Humansputum pro Min. freigesetzten Spaltproduktes R-NH2 in Nanomol (Submandibularis-Kallikrein)” value [2] is reported as 9,9 Nanomol and the “Menge des durch 1 CU-Einheit Humanplasmin pro Min. freigesetzten Spaltproduktes R-NH2 in Nanomol (Humanplasmin)” value [3] is reported as 122 Nanomol. The “Menge des durch 1 NIH-Einheit Thrombin pro Min. freigesetzten Spaltproduktes R-NH2 in Nanomol (Humanthrombin)” value [4] was 80,4 Nanomol.

With `NCCCC[C@H](NC(=O)[C@@H]1CCCN1C(=O)[C@H](N)CC1CCCCC1)C(=O)Nc1ccc([N+](=O)[O-])cc1` [Beispiel 29, 2AcOH.H-D-CHA-Pro-Lys-pNA] (H-[dCha]-Pro-Lys-pNA) the “Menge des durch 1 ml Humanurin pro Min. freigesetzten Spaltproduktes R-NH2 in Nanomol (Urinkallikrein)” value [1] was 0,71 Nanomol, the “Menge des durch 1 ml Humansputum pro Min. freigesetzten Spaltproduktes R-NH2 in Nanomol (Submandibularis-Kallikrein)” value [2] was 4,4 Nanomol and the “Menge des durch 1 CU-Einheit Humanplasmin pro Min. freigesetzten Spaltproduktes R-NH2 in Nanomol (Humanplasmin)” value [3] was 639 Nanomol. For the same compound, the “Menge des durch 1 NIH-Einheit Thrombin pro Min. freigesetzten Spaltproduktes R-NH2 in Nanomol (Humanthrombin)” value [4] was 4,54 Nanomol.

For `CC(C)[C@@H](N)C(=O)N[C@H](C(=O)N[C@@H](CCCCN)C(=O)Nc1ccc([N+](=O)[O-])cc1)C1CCCCC1` [Beispiel 30, 2AcOH.H-D-Val-CHG-Lys-pNA] (H-[dV]-[Chg]-Lys-pNA), the “Menge des durch 1 ml Humanurin pro Min. freigesetzten Spaltproduktes R-NH2 in Nanomol (Urinkallikrein)” value [1] was 0 Nanomol, the “Menge des durch 1 ml Humansputum pro Min. freigesetzten Spaltproduktes R-NH2 in Nanomol (Submandibularis-Kallikrein)” value [2] was 1,3 Nanomol and the “Menge des durch 1 CU-Einheit Humanplasmin pro Min. freigesetzten Spaltproduktes R-NH2 in Nanomol (Humanplasmin)” value [3] was 61 Nanomol. For the same compound, the “Menge des durch 1 NIH-Einheit Thrombin pro Min. freigesetzten Spaltproduktes R-NH2 in Nanomol (Humanthrombin)” value [4] was 0,27 Nanomol.

For `NCCCC[C@H](NC(=O)[C@@H]1CCCN1C(=O)[C@H](N)C1CCCCC1)C(=O)Nc1ccc([N+](=O)[O-])cc1` [Beispiel 31, 2AcOH.H-D-CHG-Pro-Lys-pNA] (H-[dChg]-Pro-Lys-pNA), the “Menge des durch 1 ml Humanurin pro Min. freigesetzten Spaltproduktes R-NH2 in Nanomol (Urinkallikrein)” value [1] was 0 Nanomol, the “Menge des durch 1 ml Humansputum pro Min. freigesetzten Spaltproduktes R-NH2 in Nanomol (Submandibularis-Kallikrein)” value [2] was 1,9 Nanomol and the “Menge des durch 1 CU-Einheit Humanplasmin pro Min. freigesetzten Spaltproduktes R-NH2 in Nanomol (Humanplasmin)” value [3] was 231 Nanomol. For the same compound, the “Menge des durch 1 NIH-Einheit Thrombin pro Min. freigesetzten Spaltproduktes R-NH2 in Nanomol (Humanthrombin)” value [4] was 3,78 Nanomol.

In the case of `NCCCC[C@H](NC(=O)[C@@H]1CCCN1C(=O)[C@H](N)CC1CCC(O)CC1)C(=O)Nc1ccc([N+](=O)[O-])cc1` (stereo partly drawn) [Beispiel 32, 2AcOH.H-D-CHT-Pro-Lys-pNA], the “Menge des durch 1 ml Humanurin pro Min. freigesetzten Spaltproduktes R-NH2 in Nanomol (Urinkallikrein)” value [1] is reported as 0,20 Nanomol, the “Menge des durch 1 ml Humansputum pro Min. freigesetzten Spaltproduktes R-NH2 in Nanomol (Submandibularis-Kallikrein)” value [2] is reported as 3,8 Nanomol and the “Menge des durch 1 CU-Einheit Humanplasmin pro Min. freigesetzten Spaltproduktes R-NH2 in Nanomol (Humanplasmin)” value [3] is reported as 613 Nanomol. For the same compound, the “Menge des durch 1 NIH-Einheit Thrombin pro Min. freigesetzten Spaltproduktes R-NH2 in Nanomol (Humanthrombin)” value [4] was 0,8 Nanomol.

With `NCCCC[C@H](NC(=O)[C@H](CC1CCCCC1)NC(=O)[C@H](N)c1ccccc1)C(=O)Nc1ccc([N+](=O)[O-])cc1` [Beispiel 33, 2AcOH.H-D-Ph'Gly-CHA-Lys-pNA] (H-[dPhg]-[Cha]-Lys-pNA) the “Menge des durch 1 ml Humanurin pro Min. freigesetzten Spaltproduktes R-NH2 in Nanomol (Urinkallikrein)” value [1] was 0,10 Nanomol, the “Menge des durch 1 ml Humansputum pro Min. freigesetzten Spaltproduktes R-NH2 in Nanomol (Submandibularis-Kallikrein)” value [2] was 0,9 Nanomol and the “Menge des durch 1 CU-Einheit Humanplasmin pro Min. freigesetzten Spaltproduktes R-NH2 in Nanomol (Humanplasmin)” value [3] was 837 Nanomol. The “Menge des durch 1 NIH-Einheit Thrombin pro Min. freigesetzten Spaltproduktes R-NH2 in Nanomol (Humanthrombin)” value [4] was 0,4 Nanomol.

In the case of `CC(C)[C@@H](N)C(=O)N[C@@H](CC1CCC(O)CC1)C(=O)N[C@@H](CCCCN)C(=O)Nc1ccc([N+](=O)[O-])cc1` (stereo partly drawn) [Beispiel 34, 2AcOH.H-D-Val-CHT-Lys-pNA], the “Menge des durch 1 ml Humanurin pro Min. freigesetzten Spaltproduktes R-NH2 in Nanomol (Urinkallikrein)” value [1] is reported as 1,40 Nanomol, the “Menge des durch 1 ml Humansputum pro Min. freigesetzten Spaltproduktes R-NH2 in Nanomol (Submandibularis-Kallikrein)” value [2] is reported as 16,5 Nanomol and the “Menge des durch 1 CU-Einheit Humanplasmin pro Min. freigesetzten Spaltproduktes R-NH2 in Nanomol (Humanplasmin)” value [3] is reported as 532 Nanomol. For the same compound, the “Menge des durch 1 NIH-Einheit Thrombin pro Min. freigesetzten Spaltproduktes R-NH2 in Nanomol (Humanthrombin)” value [4] was 0,4 Nanomol.

`NCCCC[C@H](NC(=O)[C@H](CC1CCC(O)CC1)NC(=O)[C@H](N)c1ccccc1)C(=O)Nc1ccc([N+](=O)[O-])cc1` (stereo partly drawn) [Beispiel 35, 2AcOH.H-D-Ph'Gly-CHT-Lys-pNA] was tested, and the “Menge des durch 1 ml Humanurin pro Min. freigesetzten Spaltproduktes R-NH2 in Nanomol (Urinkallikrein)” value [1] was 0,10 Nanomol, the “Menge des durch 1 ml Humansputum pro Min. freigesetzten Spaltproduktes R-NH2 in Nanomol (Submandibularis-Kallikrein)” value [2] was 0,9 Nanomol and the “Menge des durch 1 CU-Einheit Humanplasmin pro Min. freigesetzten Spaltproduktes R-NH2 in Nanomol (Humanplasmin)” value [3] was 894 Nanomol. The “Menge des durch 1 NIH-Einheit Thrombin pro Min. freigesetzten Spaltproduktes R-NH2 in Nanomol (Humanthrombin)” value [4] was 0,5 Nanomol.

In the case of `CC(C)C[C@@H](N)C(=O)N[C@@H](CC1CCCCC1)C(=O)N[C@@H](CCCNC(=N)N)C(=O)Nc1ccc([N+](=O)[O-])cc1` [Beispiel 36, 2HBr.H-D-Leu-CHA-Arg-pNA] (H-[dL]-[Cha]-Arg-pNA), the “Menge des durch 1 ml Humanurin pro Min. freigesetzten Spaltproduktes R-NH2 in Nanomol (Urinkallikrein)” value [1] is reported as 3,11 Nanomol, the “Menge des durch 1 ml Humansputum pro Min. freigesetzten Spaltproduktes R-NH2 in Nanomol (Submandibularis-Kallikrein)” value [2] is reported as 35,9 Nanomol and the “Menge des durch 1 CU-Einheit Humanplasmin pro Min. freigesetzten Spaltproduktes R-NH2 in Nanomol (Humanplasmin)” value [3] is reported as 1069 Nanomol. For the same compound, the “Menge des durch 1 NIH-Einheit Thrombin pro Min. freigesetzten Spaltproduktes R-NH2 in Nanomol (Humanthrombin)” value [4] was 6,8 Nanomol.

In the case of `CCCC[C@@H](N)C(=O)N[C@@H](CC1CCCCC1)C(=O)N[C@@H](CCCNC(=N)N)C(=O)Nc1ccc([N+](=O)[O-])cc1` [Beispiel 37, 2HBr.H-D-Nleu-CHA-Arg-pNA] (H-[dNle]-[Cha]-Arg-pNA), the “Menge des durch 1 ml Humanurin pro Min. freigesetzten Spaltproduktes R-NH2 in Nanomol (Urinkallikrein)” value [1] is reported as 2,08 Nanomol, the “Menge des durch 1 ml Humansputum pro Min. freigesetzten Spaltproduktes R-NH2 in Nanomol (Submandibularis-Kallikrein)” value [2] is reported as 28,1 Nanomol and the “Menge des durch 1 CU-Einheit Humanplasmin pro Min. freigesetzten Spaltproduktes R-NH2 in Nanomol (Humanplasmin)” value [3] is reported as 1179 Nanomol. The “Menge des durch 1 NIH-Einheit Thrombin pro Min. freigesetzten Spaltproduktes R-NH2 in Nanomol (Humanthrombin)” value [4] was 7,3 Nanomol.

With `CCC[C@@H](N)C(=O)N[C@@H](CC1CCCCC1)C(=O)N[C@@H](CCCNC(=N)N)C(=O)Nc1ccc([N+](=O)[O-])cc1` [Beispiel 38, 2HBr.H-D-Nval-CHA-Arg-pNA] (H-[dNva]-[Cha]-Arg-pNA) the “Menge des durch 1 ml Humanurin pro Min. freigesetzten Spaltproduktes R-NH2 in Nanomol (Urinkallikrein)” value [1] was 3,12 Nanomol, the “Menge des durch 1 ml Humansputum pro Min. freigesetzten Spaltproduktes R-NH2 in Nanomol (Submandibularis-Kallikrein)” value [2] was 41,3 Nanomol and the “Menge des durch 1 CU-Einheit Humanplasmin pro Min. freigesetzten Spaltproduktes R-NH2 in Nanomol (Humanplasmin)” value [3] was 969 Nanomol. For the same compound, the “Menge des durch 1 NIH-Einheit Thrombin pro Min. freigesetzten Spaltproduktes R-NH2 in Nanomol (Humanthrombin)” value [4] was 5,1 Nanomol.
